Reference: patent US20180178030A1, “PHOTODYNAMIC THERAPEUTIC METHOD FOR TREATING DENTAL INFECTION” (Olighter Co. Ltd., priority 2016, published 2018)

Columns and labels:
[1] = test system: G (+) bacteria (Streptococcus mutans, Streptococcus sobrinus); assay: in vitro bacterial disinfection by photodynamic therapy method (FIG. 8), G (+) bacteria; assay type: cell-based; conditions: photosensitizer plus infrared laser ray 808 nanometers, irradiation about 5 minutes
Excerpt: (§1) One group assay represents the different bacterial disinfection by using the photodynamic therapy method in vitro with a specific irradiated wavelength of the light, and the other group assay represents the different bacterial disinfection by using the photodynamic therapy method in vitro with a specific compound X and the specific irradiated wavelength of the light.
(§2) The light is infrared laser ray. The specific irradiated wavelength of the infrared laser ray of is 808 nanometers. The specific compound X is a photosensitizer. The photosensitizer is the indocyanine green dye. The period of irradiating the bacteria is about 5 minutes. The bacteria include gram positive (G (+)) bacteria and gram negative (G (−)) bacteria. The G (+) bacteria include a Streptococcus mutans (S. mutans) and a Streptococcus sobrinus (S. sobrinus). The G (−) bacteria include an Aggregatibacter actinomycetemcomitans (A. actinomycetemcomitans), a Fusobacterium nucleatum (F. nucleatum), and a Porphyromonas gingivalis (P. gingivalis).
(§3) Referring to FIG. 8, when the photodynamic therapy method in vitro uses the specific photosensitizer and the specific irradiated wavelength of the light, the G (+) bacterial show the percentage growth rate as zero, and the G (−) bacteria show the percentage growth rate as less than 20%.

[2] = test system: G (−) bacteria (Aggregatibacter actinomycetemcomitans, Fusobacterium nucleatum, Porphyromonas gingivalis); assay: in vitro bacterial disinfection by photodynamic therapy method (FIG. 8), G (−) bacteria; assay type: cell-based; conditions: photosensitizer plus infrared laser ray 808 nanometers, irradiation about 5 minutes
Excerpt: as §1, §2, §3

With `CC1(C)C(/C=C/C=C/C=C/C=C2\N(CCCCS(=O)(=O)O)c3ccc4ccccc4c3C2(C)C)=[N+](CCCCS(=O)(=O)[O-])c2ccc3ccccc3c21` [specific photosensitizer, indocyanine green] as the molecule, how does the “percentage growth rate of the bacteria” value [1] read?
Its value is “zero”.

And the “percentage growth rate of the bacteria” value [2]?
Its value is “less than 20%”.
